Our source for the IC50 values is patent US9085576B2 (AMGEN INC., priority 2013, dated 2015).

pIC50: −log10 of the molar value. Structures can show the parent of a compound that is named as a salt.

Assay [1] addresses Beta Secretase enzyme (BACE) (Homo sapiens (Human), UniProt P56817). As to the kind of experiment: In vitro enzymatic BACE FRET assay. The class given is biochemical. The following applies: read-out: BACE1 Enzyme assay IC50.
Assay [2] addresses Cathepsin D (Cat D) (Homo sapiens (Human), UniProt P07339). As to the kind of experiment: In vitro enzymatic Cathepsin D (Cat D) FRET assay. The class given is biochemical. The following applies: read-out: CatD IC50.
Method: In Vitro Enzymatic Cathepsin D (Cat D) FRET (Fluorescence Resonance Energy Transfer) Assay
Recombinant Cat D was expressed in CHO cells. The assay buffer for CathepsinD is 0.05 M citrate pH 3.5, 10% DMSO final, 5 mM CHAPS. […] The assays are effectively started by the addition of different FRET substrates (20 nM for Cat D) and the combination is incubated for one hour. The FRET assay is terminated with by addition of Tris buffer, which raises the pH to neutrality, and the fluorescence is determined. […] Proteolytic cleavage of the FRET substrate releases quenching of fluorescence (Cat D excitation 500 nm and emission 580 nm).
Assay [3] deals with BACE (Homo sapiens (Human), UniProt P56817). As to the kind of experiment: In vitro BACE cell-based assay (Aβ40 in conditioned medium, sandwich ELISA). In general terms: ELISA stands for enzyme-linked immunosorbent assay.
Chain of BACE (P56817 46-501, species assumed): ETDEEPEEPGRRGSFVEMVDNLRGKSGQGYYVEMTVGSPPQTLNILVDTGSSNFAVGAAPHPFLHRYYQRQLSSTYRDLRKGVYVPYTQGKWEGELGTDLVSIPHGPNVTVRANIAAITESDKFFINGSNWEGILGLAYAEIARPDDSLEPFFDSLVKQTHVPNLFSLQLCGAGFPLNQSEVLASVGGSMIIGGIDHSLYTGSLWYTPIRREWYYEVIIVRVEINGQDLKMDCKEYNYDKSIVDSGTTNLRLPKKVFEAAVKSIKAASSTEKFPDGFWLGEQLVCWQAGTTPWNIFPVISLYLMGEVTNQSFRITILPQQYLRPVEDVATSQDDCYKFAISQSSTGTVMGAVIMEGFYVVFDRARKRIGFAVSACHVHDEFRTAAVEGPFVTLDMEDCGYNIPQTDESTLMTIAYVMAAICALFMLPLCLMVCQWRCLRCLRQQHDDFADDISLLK

Chain of Beta Secretase enzyme (BACE) (P56817 46-501): as the sequence (P56817 46-501, species assumed) above
Chain of Cathepsin D (Cat D) (P07339 65-412, species assumed): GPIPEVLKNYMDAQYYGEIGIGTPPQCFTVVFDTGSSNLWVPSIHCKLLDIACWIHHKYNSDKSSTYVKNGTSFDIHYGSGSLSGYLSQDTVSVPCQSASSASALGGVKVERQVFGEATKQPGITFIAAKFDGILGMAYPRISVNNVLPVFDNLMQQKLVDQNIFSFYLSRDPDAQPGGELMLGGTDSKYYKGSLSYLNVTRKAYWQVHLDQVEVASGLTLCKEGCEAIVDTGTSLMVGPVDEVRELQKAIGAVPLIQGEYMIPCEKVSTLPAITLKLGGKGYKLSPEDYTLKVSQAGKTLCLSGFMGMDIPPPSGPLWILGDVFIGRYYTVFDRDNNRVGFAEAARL

For the molecule `C[C@H](C#N)Oc1ccc(C(=O)Nc2ccc(F)c([C@@]3(C(F)F)N=C(N)O[C@@H]4C[C@@H]43)c2)nc1` (mixture of isomers) [Example 259], the pIC50 – broadly, the negative decadic logarithm of the IC50, by convention in mol/L – is 6.18 in assay [1] and 3.18 in assay [2]. The IC50 (commonly the concentration at which inhibition is half-maximal) in assay [3] worked out at 0.473 µM.

As to `C[C@@H](Nc1ccc(F)c([C@@]2(C(F)F)N=C(N)O[C@@H]3C[C@@H]32)c1)c1ccc(Cl)cn1` (mixture of isomers) [Example 378, (1R,5S,6R)-5-(5-(((R)-1-(5-chloropyridin-2-yl)ethyl)amino)-2-fluorophenyl)-5-(difluoromethyl)-2-oxa-4-azabicyclo[4.1.0]hept-3-en-3-amine and (1R,5S,6R)-5-(5-(((S)-1-(5-chloropyridin-2-yl)ethyl)amino)-2-fluorophenyl)-5-(difluoromethyl)-2-oxa-4-azabicyclo[4.1.0]hept-3-en-3-amine], the negative logarithm of the IC50 (pIC50) is 4.86 in assay [1] and 4.11 in assay [2]. The molecule also came in with an IC50 in assay [3] of 2.13 µM.

With `NC1=N[C@@](c2cc(NC(=O)c3cnc(OCC4CCOC4)cn3)ccc2F)(C(F)F)[C@H]2C[C@H]2O1` (mixture of isomers) [Example 413], the results for the pIC50 in assay [1], in assay [2] and in assay [3] were 6.84, less than 3.40 and 6.06, respectively.

As for `NC1=N[C@](c2cc(NC(=O)c3ccc(Cl)cn3)ccc2F)(C(F)F)[C@@H]2C[C@@H]2O1` (racemic) [Example 55, N-(3-([1(R,S),5(S,R),6(R,S)]-3-amino-5-(difluoromethyl)-2-oxa-4-azabicyclo[4.1.0]hept-3-en-5-yl)-4-fluorophenyl)-5-chloropicolinamide], the negative-log IC50 (pIC50) in assay [1] was 7.44; in assay [2], 3.07. This molecule also displayed an IC50 in assay [3] of 0.0431 µM.

As for `COc1cnc(C(=O)Nc2ccc(F)c([C@]3(C(F)F)N=C(N)O[C@H]4C[C@H]43)c2)c(C)n1` (racemic) [Example 58, N-(3-([1(R,S),5(S,R),6(R,S)]-3-amino-5-(difluoromethyl)-2-oxa-4-azabicyclo[4.1.0]hept-3-en-5-yl)-4-fluorophenyl)-5-methoxy-3-methylpyrazine-2-carboxamide], the pIC50 in assay [1] was 6.80; in assay [2], 3.09. For the same molecule, the IC50 in assay [3] was determined as 0.179 µM.

For the molecule `Cc1c(C(=O)Nc2ccc(F)c([C@]3(C(F)F)N=C(N)O[C@H]4C[C@H]43)c2)nc2ccc(Cl)cn12` (racemic) [Example 61, N-(3-([1(R,S),5(S,R),6(R,S)]-3-amino-5-(difluoromethyl)-2-oxa-4-azabicyclo[4.1.0]hept-3-en-5-yl)-4-fluorophenyl)-6-chloro-3-methylimidazo[1,2-a]pyridine-2-carboxamide], the values for the pIC50 in assay [1] and in assay [2] were 6.78 and 2.75, respectively. Moreover, the half-inhibitory concentration (IC50) in assay [3] was determined as 0.0701 µM.

Take `NC1=N[C@](c2cc(NC(=O)c3ccc(Cl)cn3)cnc2F)(C(F)F)[C@@H]2C[C@@H]2O1` (racemic) [Example 73, N-(5-([1(R,S),5(S,R),6(R,S)]-3-amino-5-(difluoromethyl)-2-oxa-4-azabicyclo[4.1.0]hept-3-en-5-yl)-6-fluoropyridin-3-yl)-5-chloropicolinamide]: the results for the pIC50 in assay [1] and in assay [2] were 6.94 and 3.56, respectively. The same molecule yielded a half-maximal inhibitory concentration (IC50) in assay [3] of 0.331 µM.

Turning to `NC1=N[C@@](c2cc(NC(=O)c3ccc(Cl)cn3)ccc2Cl)(C(F)F)[C@H]2C[C@H]2O1` (racemic) [Example 97, N-(3-(((1R,S), (5S,R), (6R,S))-3-amino-5-(difluoromethyl)-2-oxa-4-azabicyclo[4.1.0]hept-3-en-5-yl)-4-chlorophenyl)-5-chloropicolinamide trifluoroacetate], the pIC50 in assay [1] is 7.43; in assay [2], 2.89. The molecule also registered an IC50 in assay [3] of 0.0505 µM.

On to `N#Cc1ccc(C(=O)Nc2cc(F)c(Cl)c([C@]3(CF)N=C(N)O[C@H]4C[C@H]43)c2)nc1` (racemic) [Example 136, N-(3-((1R/S,5S/R,6R/S)-3-amino-5-(fluoromethyl)-2-oxa-4-4-azabicyclo[4.1.0]hept-3-en-5-yl)-4-chloro-5-fluorophenyl)-5-cyanopicolinamide], for which the figures for the pIC50 in assay [1] and in assay [2] were 6.92 and 3.31, respectively. The same molecule returned a concentration for half-maximal inhibition (IC50) in assay [3] of 0.0214 µM.

`CSc1c(F)cc(NC(=O)c2ccc(Cl)cn2)cc1[C@@]1(CF)N=C(N)O[C@@H]2C[C@@H]21` (racemic) [Example 141, N-(3-(((1S,R),(5S,R),(6R,S))-3-amino-5-(fluoromethyl)-2-oxa-4-azabicyclo[4.1.0]hept-3-en-5-yl)-5-fluoro-4-(methylthio)phenyl)-5-chloropicolinamide]: the pIC50 in assay [1] was less than 4.40; in assay [2], 3.18. Besides, the IC50 in assay [3] was greater than 15.6 µM.

With `COc1cnc(C(=O)Nc2cc(F)c(Cl)c([C@]3(CF)N=C(N)O[C@H]4C[C@H]43)c2)cn1` (racemic) [Example 152, N-(3-([1(S,R),5(R,S),6(S,R)]-3-amino-5-(fluoromethyl)-2-oxa-4-azabicyclo[4.1.0]hept-3-en-5-yl)-4-chloro-5-fluorophenyl)-5-methoxypyrazine-2-carboxamide compound with N-(3-((1S,5R,6S)-3-amino-5-(fluoromethyl)-2-oxa-4-azabicyclo[4.1.0]hept-3-en-5-yl)-4-chloro-5-fluorophenyl)-5-methoxypyrazine-2-carboxamide (1:1)], the pIC50 in assay [1] is 6.89; in assay [2], 3.39. This molecule also yielded an IC50 in assay [3] of 0.0476 µM.

Turning to `Cc1cc(OC(F)F)cnc1C(=O)Nc1cc(F)c(Cl)c([C@]2(CF)N=C(N)O[C@H]3C[C@H]32)c1` (racemic) [Example 153, N-(3-([1(S,R),5(R,S),6(S, R)]-3-amino-5-(fluoromethyl)-2-oxa-4-azabicyclo[4.1.0]hept-3-en-5-yl)-4-chloro-5-fluorophenyl)-5-(difluoromethoxy)-3-methylpicolinamide compound with N-(3-((1S,5R,6S)-3-amino-5-(fluoromethyl)-2-oxa-4-azabicyclo[4.1.0]hept-3-en-5-yl)-4-chloro-5-fluorophenyl)-5-(difluoromethoxy)-3-methylpicolinamide (1:1)], the negative-log IC50 (pIC50) was 6.84 in assay [1] and 3.26 in assay [2]. Further, the concentration for half-maximal inhibition (IC50) in assay [3] is 0.0762 µM.

Turning to `Cc1nc(OCC(F)(F)F)cnc1C(=O)Nc1cc(F)c(Cl)c([C@]2(CF)N=C(N)O[C@H]3C[C@H]32)c1` (racemic) [Example 159, N-(3-([1(S,R),5(R,S),6(S,R)]-3-amino-5-(fluoromethyl)-2-oxa-4-azabicyclo[4.1.0]hept-3-en-5-yl)-4-chloro-5-fluorophenyl)-3-methyl-5-(2,2,2-trifluoroethoxy)pyrazine-2-carboxamide], the negative logarithm of the IC50 (pIC50) in assay [1] was 6.65; in assay [2], 2.98. In assay [3], this molecule returned an IC50 of 0.466 µM.

As to `NC1=N[C@](c2cccc(NC(=O)c3ccc(Cl)cn3)c2)(C(F)(F)F)[C@@H]2C[C@@H]2O1` (racemic) [Example 208, N-(3-([1(R,S),5(S,R),6(R,S)]-3-amino-5-(trifluoromethyl)-2-oxa-4-azabicyclo[4.1.0]hept-3-en-5-yl)phenyl)-5-chloropicolinamide], the values for the negative-log IC50 (pIC50) in assay [1] and in assay [2] were 6.82 and 3.31, respectively. Also, in assay [3], the IC50 came out at 3.64 µM.

For `NC1=N[C@](c2cc(NC(=O)c3ccc(Cl)cn3)ccc2F)(C(F)(F)F)[C@@H]2C[C@@H]2O1` (racemic) [Example 218, N-(3-((1(R,S),5(S,R),6(R,S))-3-amino-5-(trifluoromethyl)-2-oxa-4-azabicyclo[4.1.0]hept-3-en-5-yl)-4-fluorophenyl)-5-chloropicolinamide compound], the figures for the pIC50 in assay [1] and in assay [2] were 6.06 and less than 3.40, respectively. The molecule further had a half-inhibitory concentration (IC50) in assay [3] greater than 15.6 µM.

With `N#Cc1cnc(C(=O)Nc2ccc(F)c([C@]3(CF)N=C(N)O[C@H]4C[C@H]43)c2)c(Cl)c1` (racemic) [Example 227, N-(3-((1(R,S),5(S,R),6(R,S))-3-amino-5-(fluoromethyl)-2-oxa-4-azabicyclo[4.1.0]hept-3-en-5-yl)-4-fluorophenyl)-3-chloro-5-cyanopicolinamide], the pIC50 in assay [1] is 7.33; in assay [2], 2.65. The molecule also came in with an IC50 in assay [3] of 0.0105 µM.

In the case of `Cc1cc(C#N)cnc1C(=O)Nc1cc(F)c(C)c([C@@]2(C(F)F)N=C(N)O[C@@H]3C[C@@H]32)c1` (racemic) [Example 309, N-(3-(((1R,S),(5S,R),(6R.S))-3-amino-5-(difluoromethyl)-2-oxa-4-azabicyclo[4.1.0]hept-3-en-5-yl)-5-fluoro-4-methylphenyl)-5-cyano-3-methylpicolinamide], the pIC50 in assay [1] was 7.13; in assay [2], 3.38. The molecule also displayed a half-maximal inhibitory concentration (IC50) in assay [3] of 0.0387 µM.

Turning to `N#Cc1ccc(C(=O)Nc2ccc(F)c([C@@]3(C(F)F)N=C(N)O[C@@H]4C[C@@H]43)n2)nc1` (racemic) [Example 330], the pIC50 in assay [1] was 7.00; in assay [2], 3.86. Further, the IC50 in assay [3] came to 0.0326 µM.

In the case of `CS(=O)(=O)c1c(F)cc(NC(=O)c2ccc(Cl)cn2)cc1[C@@]1(CF)N=C(N)O[C@@H]2C[C@@H]21` (racemic) [Example 424, N-(3-(((1RS),(5S,R),(6R,S))-3-amino-5-(fluoromethyl)-2-oxa-4-azabicyclo[4.1.0]hept-3-en-5-yl)-5-fluoro-4-(methylsulfonyl)phenyl)-5-chloropicolinamide], the figures for the pIC50 in assay [1], in assay [2] and in assay [3] were 5.99, 3.08 and 6.60, respectively.

On to `C#CCOc1cnc(C(=O)Nc2cc(F)c(F)c(C3(CF)N=C(N)O[C@H]4C[C@H]43)c2)cn1` (stereo in doubt) [Example 34, N-(3-((1S,5S,6S)-3-amino-5-(fluoromethyl)-2-oxa-4-azabicyclo[4.1.0]hept-3-en-5-yl)-4,5-difluorophenyl)-5-(prop-2-yn-1-yloxy)pyrazine-2-carboxamide], for which the negative-log IC50 (pIC50) in assay [1] was 5.21; in assay [2] it was 3.21. In addition, in assay [3], inhibition was half-maximal at 1.75 µM (IC50).
